# Measurements reported in PubChem BioAssay (NCI).
#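 All cell lines were grown in 96-well plates and treated with compound for 48 hours. GI50 marks 50% less growth. TGI is the concentration that stops growth completely.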
# Key:
# Assay in all cases: inhibition of tumour cell growth, NCI panel, 48 h
# MDA-MB-231 breast = test system: MDA-MB-231 breast
# SNB-75 CNS = test system: SNB-75 CNS
# HCC-2998 colon = test system: HCC-2998 colon
# SW-620 colon = test system: SW-620 colon
# NCI-H226 lung = test system: NCI-H226 lung
# PC-3 prostate = test system: PC-3 prostate
# LOX IMVI melanoma = test system: LOX IMVI melanoma
# CAKI-1 renal = test system: CAKI-1 renal
# OVCAR-8 ovarian = test system: OVCAR-8 ovarian
# HL-60(TB) leukemia = test system: HL-60(TB) leukemia
# RPMI-8226 leukemia = test system: RPMI-8226 leukemia
# CCRF-CEM leukemia = test system: CCRF-CEM leukemia
# UACC-257 melanoma = test system: UACC-257 melanoma
# KM12 colon = test system: KM12 colon
# UO-31 renal = test system: UO-31 renal
# U251 CNS = test system: U251 CNS
# IGROV1 ovarian = test system: IGROV1 ovarian
# EKVX NSCLC = test system: EKVX NSCLC
# K-562 leukemia = test system: K-562 leukemia
# NCI-H23 lung = test system: NCI-H23 lung
# COLO 205 colon = test system: COLO 205 colon
# NCI-H460 lung = test system: NCI-H460 lung
# TK-10 renal = test system: TK-10 renal
# HCT-15 colon = test system: HCT-15 colon
# BT-549 breast = test system: BT-549 breast
# HCT-116 colon = test system: HCT-116 colon
# HS 578T breast = test system: HS 578T breast
# RXF 393 renal = test system: RXF 393 renal
# DU-145 prostate = test system: DU-145 prostate
# A549 NSCLC = test system: A549 NSCLC
# SK-MEL-5 melanoma = test system: SK-MEL-5 melanoma
# NCI/ADR-RES ovarian = test system: NCI/ADR-RES ovarian
# SK-MEL-28 melanoma = test system: SK-MEL-28 melanoma
# MCF7 breast = test system: MCF7 breast
# SF-295 CNS = test system: SF-295 CNS
# OVCAR-4 ovarian = test system: OVCAR-4 ovarian
# SK-MEL-2 melanoma = test system: SK-MEL-2 melanoma
# MALME-3M melanoma = test system: MALME-3M melanoma
# SNB-19 CNS = test system: SNB-19 CNS
# A498 renal = test system: A498 renal
# SK-OV-3 ovarian = test system: SK-OV-3 ovarian
# MOLT-4 leukemia = test system: MOLT-4 leukemia
# NCI-H522 lung = test system: NCI-H522 lung
# SF-539 CNS = test system: SF-539 CNS
# 786-0 renal = test system: 786-0 renal
# T-47D breast = test system: T-47D breast
# M14 melanoma = test system: M14 melanoma
# OVCAR-3 ovarian = test system: OVCAR-3 ovarian
# HT29 colon = test system: HT29 colon
# ACHN renal = test system: ACHN renal
# MDA-MB-435 = test system: MDA-MB-435
# OVCAR-5 ovarian = test system: OVCAR-5 ovarian
# UACC-62 melanoma = test system: UACC-62 melanoma
# HOP-92 NSCLC = test system: HOP-92 NSCLC
# SR leukemia = test system: SR leukemia
# SN12C renal = test system: SN12C renal
# SF-268 CNS = test system: SF-268 CNS
structure (smiles),measurement,setting,value
COc1cc(C(=O)N2CCN(c3ccccn3)CC2)c(N)cc1OCc1ccccc1,GI50,MDA-MB-231 breast,> 100 µM
same,TGI,MDA-MB-231 breast,> 100 µM
same,GI50,SNB-75 CNS,39.9 µM
same,TGI,SNB-75 CNS,> 100 µM
same,GI50,HCC-2998 colon,> 100 µM
same,TGI,HCC-2998 colon,> 100 µM
same,GI50,SW-620 colon,> 100 µM
same,TGI,SW-620 colon,> 100 µM
same,GI50,NCI-H226 lung,> 100 µM
same,TGI,NCI-H226 lung,> 100 µM
same,GI50,PC-3 prostate,> 100 µM
same,TGI,PC-3 prostate,> 100 µM
same,GI50,LOX IMVI melanoma,> 100 µM
same,TGI,LOX IMVI melanoma,> 100 µM
same,GI50,CAKI-1 renal,> 100 µM
same,TGI,CAKI-1 renal,> 100 µM
same,GI50,OVCAR-8 ovarian,> 100 µM
same,TGI,OVCAR-8 ovarian,> 100 µM
same,GI50,HL-60(TB) leukemia,82.4 µM
same,TGI,HL-60(TB) leukemia,> 100 µM
same,GI50,RPMI-8226 leukemia,56.4 µM
same,TGI,RPMI-8226 leukemia,> 100 µM
same,GI50,CCRF-CEM leukemia,21 µM
same,TGI,CCRF-CEM leukemia,39.5 µM
same,GI50,UACC-257 melanoma,> 100 µM
same,TGI,UACC-257 melanoma,> 100 µM
same,GI50,KM12 colon,> 100 µM
same,TGI,KM12 colon,> 100 µM
same,GI50,UO-31 renal,68.3 µM
same,TGI,UO-31 renal,> 100 µM
same,GI50,U251 CNS,> 100 µM
same,TGI,U251 CNS,> 100 µM
same,GI50,IGROV1 ovarian,> 100 µM
same,TGI,IGROV1 ovarian,> 100 µM
same,GI50,EKVX NSCLC,> 100 µM
same,TGI,EKVX NSCLC,> 100 µM
same,GI50,K-562 leukemia,20 µM
same,TGI,K-562 leukemia,74.1 µM
same,GI50,NCI-H23 lung,> 100 µM
same,TGI,NCI-H23 lung,> 100 µM
same,GI50,COLO 205 colon,96.8 µM
same,TGI,COLO 205 colon,> 100 µM
same,GI50,NCI-H460 lung,> 100 µM
same,TGI,NCI-H460 lung,> 100 µM
same,GI50,TK-10 renal,> 100 µM
same,TGI,TK-10 renal,> 100 µM
same,GI50,HCT-15 colon,> 100 µM
same,TGI,HCT-15 colon,> 100 µM
same,GI50,BT-549 breast,66.4 µM
same,TGI,BT-549 breast,> 100 µM
same,GI50,HCT-116 colon,> 100 µM
same,TGI,HCT-116 colon,> 100 µM
same,GI50,HS 578T breast,> 100 µM
same,TGI,HS 578T breast,> 100 µM
same,GI50,RXF 393 renal,> 100 µM
same,TGI,RXF 393 renal,> 100 µM
same,GI50,DU-145 prostate,> 100 µM
same,TGI,DU-145 prostate,> 100 µM
same,GI50,A549 NSCLC,> 100 µM
same,TGI,A549 NSCLC,> 100 µM
same,GI50,SK-MEL-5 melanoma,30.1 µM
same,TGI,SK-MEL-5 melanoma,> 100 µM
same,GI50,NCI/ADR-RES ovarian,74.6 µM
same,TGI,NCI/ADR-RES ovarian,> 100 µM
same,GI50,SK-MEL-28 melanoma,> 100 µM
same,TGI,SK-MEL-28 melanoma,> 100 µM
same,GI50,MCF7 breast,58.5 µM
same,TGI,MCF7 breast,> 100 µM
same,GI50,SF-295 CNS,> 100 µM
same,TGI,SF-295 CNS,> 100 µM
same,GI50,OVCAR-4 ovarian,69.9 µM
same,TGI,OVCAR-4 ovarian,> 100 µM
same,GI50,SK-MEL-2 melanoma,> 100 µM
same,TGI,SK-MEL-2 melanoma,> 100 µM
same,GI50,MALME-3M melanoma,> 100 µM
same,TGI,MALME-3M melanoma,> 100 µM
same,GI50,SNB-19 CNS,> 100 µM
same,TGI,SNB-19 CNS,> 100 µM
same,GI50,A498 renal,91.2 µM
same,TGI,A498 renal,> 100 µM
same,GI50,SK-OV-3 ovarian,> 100 µM
same,TGI,SK-OV-3 ovarian,> 100 µM
same,GI50,MOLT-4 leukemia,34.1 µM
same,TGI,MOLT-4 leukemia,> 100 µM
same,GI50,NCI-H522 lung,> 100 µM
same,TGI,NCI-H522 lung,> 100 µM
same,GI50,SF-539 CNS,> 100 µM
same,TGI,SF-539 CNS,> 100 µM
same,GI50,786-0 renal,> 100 µM
same,TGI,786-0 renal,> 100 µM
same,GI50,T-47D breast,45.2 µM
same,TGI,T-47D breast,> 100 µM
same,GI50,M14 melanoma,> 100 µM
same,TGI,M14 melanoma,> 100 µM
same,GI50,OVCAR-3 ovarian,55.8 µM
same,TGI,OVCAR-3 ovarian,> 100 µM
same,GI50,HT29 colon,78.2 µM
same,TGI,HT29 colon,> 100 µM
same,GI50,ACHN renal,> 100 µM
same,TGI,ACHN renal,> 100 µM
same,GI50,MDA-MB-435,> 100 µM
same,TGI,MDA-MB-435,> 100 µM
same,GI50,OVCAR-5 ovarian,> 100 µM
same,TGI,OVCAR-5 ovarian,> 100 µM
same,GI50,UACC-62 melanoma,81 µM
same,TGI,UACC-62 melanoma,> 100 µM
same,GI50,HOP-92 NSCLC,> 100 µM
same,TGI,HOP-92 NSCLC,> 100 µM
same,GI50,SR leukemia,77.7 µM
same,TGI,SR leukemia,> 100 µM
same,GI50,SN12C renal,46.8 µM
same,TGI,SN12C renal,> 100 µM
same,GI50,SF-268 CNS,> 100 µM
same,TGI,SF-268 CNS,> 100 µM
